Data set [1] in a line: Solubility test in PBS(−) and PBS(+) solution. In kind it is physicochemical. To be noted: for Solubility PBS(+): PBS(+) solution (with CaCl2 and MgCl2); for Solubility PBS (−): PBS(−) solution, ultrasonicated at 30° C. 10 minutes, room temperature 2 hours, absorbance at 500 nm. On the procedure: PBS tablets (ICN Bioohemi Inc., containing 0.02 g of KH2PO4, 0.115 g of Na2HPO4, 0.02 g of KCl and […] of NaCl per tablet) were dissolved in distilled water (100 ml), and the solution was autoclaved to obtain a PBS(−) solution. The PBS(−) solution (80 ml) was added with CaCl2 dihydrate (1 g/L, 10 ml) and MgCl2 hexahydrate (1 g/L, 10 ml) to prepare a PBS(+) solution.
Each test compound (1 mg) was added to the PBS(−) solution (300 μl), and the mixture was ultrasonicated at 30° C. for 10 minutes, and left at room temperature for 2 hours. Then, the mixture was centrifuged (12,000 rpm, 10 minutes), the supernatant was diluted 50 times with 0.01 N sodium hydroxide solution, and absorbance of the diluted mixture was measured at 500 nm.
The solubility in the PBS(+) solution can also be obtained in a similar manner.

A further data set deals with A. fumigatus IFO8866. The experiment in a line: Antifungal activity test, agar dilution method. The note with it: for MIC A. fumigatus IFO8866: yeast morphology agar, pH 7.0, 30° C. for 2 days; for antifungal activity against A. fumigatus (in words): compared with control BMY28864. In kind it is cell-based. On the procedure: (§1) Antifungal activity was measured by the agar dilution method utilizing the yeast morphology agar (0.15 M phosphate buffer, pH 7.0). Each microorganism was inoculated in an amount of 5 μl of 2×10^6 cells/ml solution per spot, and cultured at 30° C. for 2 days. The results were represented in terms of the minimum growth inhibitory concentration. As a control compound, BMY28864 was used.
A general note: In agar dilution the substance is mixed into plates at graded concentrations.

The next data set relates to C. albicans A9540. The experiment in a line: Antifungal activity test, agar dilution method. The note with it: for MIC C. albicans A9540: yeast morphology agar, pH 7.0, 30° C. for 2 days; for antifungal activity against C. albicans (in words): compared with control BMY28864. In kind it is cell-based. On the procedure:
as §1

A further data set deals with C. neoformans ATCC 90112. Briefly: Antifungal activity test, agar dilution method. Format: cell-based. To be noted: for MIC C. neoformans ATCC 90112: yeast morphology agar, pH 7.0, 30° C. for 2 days; for antifungal activity against C. neoformans (in words): compared with control BMY28864. On the procedure: as §1
The next data set can be described thus: Mannan binding test. Further details: species or system yeast. The note with it: PBS(+); incubation at 30° C. for 24 hours; ~0: below detection limit (trace). The method, then: A PBS(+) solution (100 μl) of mannan (Sigma, derived from yeast, 50 μg/ml) and a PBS(+) solution (100 μl) of each test compound (40 μg/ml) were mixed, and incubated at 30° C. for 24 hours. Then, the mixture was centrifuged (14,000 rpm, 4° C., 5 minutes), the supernatant was diluted 10 times with 0.01 N sodium hydroxide solution, and absorbance of the diluted mixture was measured at 500 nm. The amount of the dissolved compound was calculated on the basis of E1 cm1%180 (500 nm), and the amount of the compound binding to mannan was calculated.

SMILES strings stand for the structures. ≈ marks a conversion by molar mass, not a printed value.

Consider `COc1cc(O)c2c(c1)C(=O)c1c(cc3c(c1O)-c1c(cc(C)c(C(=O)N[C@H](CO)C(=O)O)c1O)[C@H](O[C@@H]1O[C@H](C)[C@H](N(C)C)[C@H](O[C@@H]4OC[C@@H](O)[C@H](O)[C@H]4O)[C@H]1O)[C@H]3O)C2=O` [BMY28864, N,N′-dimethylpradimicin FA-2, reference compound], for which, in data set [1], the “Solubility PBS(+)” value was 16,000 μg/ml and the “Solubility PBS (−)” value is given as 14,000 μg/ml. For the same compound, in the data set with A. fumigatus IFO8866, the “MIC A. fumigatus IFO8866” value amounted to 12.5 µg/mL (≈ 14.4 µM). Besides, the “MIC C. albicans A9540” value in the data set with C. albicans A9540 stood at 6.3 µg/mL (≈ 7.23 µM). In addition, the “MIC C. neoformans ATCC 90112” value against C. neoformans ATCC 90112 is 3.1 µg/mL (≈ 3.56 µM). Further, the Binding to mannan in the data set “Mannan binding test” was 0.81 μg/1 μg of mannan.
Consider `COc1cc(O)c2c(c1)C(=O)c1c(cc3c(c1O)-c1c(cc(C)c(C(=O)N[C@H](CO)C(=O)O)c1O)[C@H](O[C@@H]1O[C@H](C)[C@H](N(C)C)[C@H](O[C@H](OCC(=O)O)C(=O)O)[C@H]1O)[C@H]3O)C2=O` [BMY28864-DCA], for which, in data set [1], the “Solubility PBS(+)” value is 37,500 μg/ml and the “Solubility PBS (−)” value is 37,500 μg/ml. In the data set on A. fumigatus IFO8866, the “antifungal activity against A. fumigatus (in words)” value was “relatively low” and the “MIC A. fumigatus IFO8866” value is above 50 µg/mL. Also, in the data set on C. albicans A9540, the “antifungal activity against C. albicans (in words)” value is listed as “maintained” and the “MIC C. albicans A9540” value was 12.5 µg/mL (≈ 14.4 µM). For the same compound, in the data set on C. neoformans ATCC 90112, the “antifungal activity against C. neoformans (in words)” value is reported as “maintained” and the “MIC C. neoformans ATCC 90112” value worked out at 25 µg/mL (≈ 28.7 µM). Also, the Binding to mannan in “Mannan binding test” is 0.28 μg/1 μg of mannan.
For the compound `COc1cc(O)c2c(c1)C(=O)c1c(cc3c(c1O)-c1c(cc(C)c(C(=O)N[C@H](C)C(=O)O)c1O)[C@H](O[C@@H]1O[C@H](C)[C@H](N(C)C)[C@H](O[C@@H]4OC[C@@H](O)[C@H](O)[C@H]4O)[C@H]1O)[C@H]3O)C2=O` [N,N-Me2-PRM C, reference compound], in data set [1], the “Solubility PBS(+)” value is 950 µg/mL (≈ 1110 µM) and the “Solubility PBS (−)” value was 1,900 μg/ml. Further, the Binding to mannan in the data set “Mannan binding test” is on record as 0.79 μg/1 μg of mannan.
As to `COc1cc(O)c2c(c1)C(=O)c1c(cc3c(c1O)-c1c(cc(C)c(C(=O)N[C@H](C)C(=O)O)c1O)[C@H](O[C@@H]1O[C@H](C)[C@H](N(C)C)[C@H](O[C@H](OCC(=O)O)C(=O)O)[C@H]1O)[C@H]3O)C2=O` [N,N-Me2-PRM C-DCA], in data set [1], the “Solubility PBS(+)” value is 1,850 μg/ml and the “Solubility PBS (−)” value is recorded as 1,400 μg/ml. Further, in the data set with A. fumigatus IFO8866, the “antifungal activity against A. fumigatus (in words)” value is “lower than that of BMY28884” and the “MIC A. fumigatus IFO8866” value came out at 25 µg/mL (≈ 29.2 µM). In the data set on C. albicans A9540, the “antifungal activity against C. albicans (in words)” value is on record as “almost equal to those of BMY28884” and the “MIC C. albicans A9540” value was 6.3 µg/mL (≈ 7.37 µM). Further, in the data set on C. neoformans ATCC 90112, the “antifungal activity against C. neoformans (in words)” value was “almost equal to those of BMY28884” and the “MIC C. neoformans ATCC 90112” value came out at 3.1 µg/mL (≈ 3.63 µM). Moreover, the Binding to mannan in “Mannan binding test” is on record as ~0 μg/1 μg of mannan.
For the compound `CN[C@@H]1[C@H](O[C@@H]2OC[C@@H](O)[C@H](O)[C@H]2O)[C@@H](O)[C@H](O[C@H]2c3cc(C)c(C(=O)N[C@H](C)C(=O)O)c(O)c3-c3c(cc4c(c3O)C(=O)c3cc(OC)cc(O)c3C4=O)[C@@H]2O)O[C@@H]1C` [PRM A, Pradimicin (PRM) A, reference compound], in data set [1], the “Solubility PBS(+)” value was 68.5 µg/mL (≈ 81.5 µM) and the “Solubility PBS (−)” value amounted to 39.5 µg/mL (≈ 47 µM). Moreover, the Binding to mannan in “Mannan binding test” is given as 0.89 μg/1 μg of mannan.
With `CN[C@@H]1[C@H](O[C@H](OCC(=O)O)C(=O)O)[C@@H](O)[C@H](O[C@H]2c3cc(C)c(C(=O)N[C@H](C)C(=O)O)c(O)c3-c3c(cc4c(c3O)C(=O)c3cc(OC)cc(O)c3C4=O)[C@@H]2O)O[C@@H]1C` [PRM A-DCA], in data set [1], the “Solubility PBS(+)” value is recorded as 2,300 μg/ml and the “Solubility PBS (−)” value is 2,250 μg/ml. Also, in the data set with A. fumigatus IFO8866, the “antifungal activity against A. fumigatus (in words)” value was “relatively low” and the “MIC A. fumigatus IFO8866” value is above 50 µg/mL. Besides, in the data set on C. albicans A9540, the “antifungal activity against C. albicans (in words)” value is reported as “maintained” and the “MIC C. albicans A9540” value is 6.3 µg/mL (≈ 7.49 µM). For the same compound, in the data set with C. neoformans ATCC 90112, the “antifungal activity against C. neoformans (in words)” value is reported as “maintained” and the “MIC C. neoformans ATCC 90112” value is 12.5 µg/mL (≈ 14.9 µM). Further, in the data set “Mannan binding test”, the Binding to mannan is 0.02 μg/1 μg of mannan.
